Laboratory results as given in patent publication US11332476B2, “Fms-like tyrosine kinase inhibitors” (3SM BIOTRON INC., priority 2018, dated 2022).

Molecular target: T1, FLT3 (Homo sapiens, UniProt P36888)
T1 sequence (P36888 27-993): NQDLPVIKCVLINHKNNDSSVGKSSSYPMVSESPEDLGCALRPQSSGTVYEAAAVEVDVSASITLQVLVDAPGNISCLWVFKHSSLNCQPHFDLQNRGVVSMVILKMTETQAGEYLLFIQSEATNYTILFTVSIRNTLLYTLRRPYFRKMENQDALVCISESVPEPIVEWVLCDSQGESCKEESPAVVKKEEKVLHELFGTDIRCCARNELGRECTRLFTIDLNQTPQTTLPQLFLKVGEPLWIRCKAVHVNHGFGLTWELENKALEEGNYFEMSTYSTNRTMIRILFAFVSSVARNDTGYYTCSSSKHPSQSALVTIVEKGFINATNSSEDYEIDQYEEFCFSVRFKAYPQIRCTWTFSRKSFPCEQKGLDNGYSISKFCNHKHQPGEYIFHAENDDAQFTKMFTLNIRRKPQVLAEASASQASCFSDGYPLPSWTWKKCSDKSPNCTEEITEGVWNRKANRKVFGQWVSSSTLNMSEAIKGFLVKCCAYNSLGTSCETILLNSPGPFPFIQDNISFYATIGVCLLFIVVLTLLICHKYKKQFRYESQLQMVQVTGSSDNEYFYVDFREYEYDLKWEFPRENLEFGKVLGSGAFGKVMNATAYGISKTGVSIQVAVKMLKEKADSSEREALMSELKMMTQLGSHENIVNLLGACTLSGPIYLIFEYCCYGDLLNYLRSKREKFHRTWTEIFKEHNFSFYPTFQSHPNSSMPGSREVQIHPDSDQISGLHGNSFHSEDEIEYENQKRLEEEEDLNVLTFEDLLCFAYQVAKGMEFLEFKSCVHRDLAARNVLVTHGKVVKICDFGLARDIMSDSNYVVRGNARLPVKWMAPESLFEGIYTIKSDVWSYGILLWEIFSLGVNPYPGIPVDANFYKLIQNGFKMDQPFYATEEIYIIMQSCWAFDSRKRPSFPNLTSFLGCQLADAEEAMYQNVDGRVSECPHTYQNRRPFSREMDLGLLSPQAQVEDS
Test: Inhibition of FLT3, 33P-ATP kinase assay with filter-binding detection
Format: biochemical
Conditions: 33P-ATP 10 uM, 2 hours at room temperature, filter-binding method
Method: Prepare indicated substrate in freshly prepared Base Reaction Buffer (20 mM Hepes (pH 7.5), 10 mM MgCl2, 1 mM EGTA, 0.02% Brij35, 0.02 mg/ml BSA, 0.1 mM Na3VO4, 2 mM DTT, 1% DMSO). Deliver any required cofactors to the substrate solution above. Deliver indicated kinase into the substrate solution and gently mix. The testing compounds in DMSO was added into the kinase reaction mixture by Acoustic technology (Echo550; nanoliter range) and incubated for 20 minutes at room temperature. Deliver 33P-ATP (specific activity […]) into the reaction mixture to initiate the reaction. Incubate kinase reaction for 2 hours at room temperature. Reactions are spotted onto P81 ion exchange paper. Detect kinase activity by filter-binding method.
Inhibition of FLT3 with 4-Quinolone Derivatives

Row | SMILES | IC50 [nM]
1 | Cc1ccc2sc3c(NCc4ccccc4)nc4ccccc4c3c(=O)c2c1 [compound 7233, 6-(benzylamino)-10-methyl-12H-thiochromeno[2,3-c]quinolin-12-one] | > 1000
2 | CCNc1nc2ccccc2c2c(=O)c3cccc(F)c3sc12 [compound 7241, 6-(ethylamino)-8-fluoro-12H-thiochromeno[2,3-c]quinolin-12-one] | > 1000
3 | CCNc1nc2ccccc2c2c(=O)c3cccc(OC)c3sc12 [compound 7245, 6-(ethylamino)-8-methoxy-12H-thiochromeno[2,3-c]quinolin-12-one] | > 1000
4 | O=c1c2cc(F)cc(F)c2sc2c(NCCCNCCO)nc3ccccc3c12 [compound 7253, 8,10-difluoro-6-(3-(2-hydroxyethylamino)propylamino)-12H-thiochromeno[2,3-c]quinolin-12-one] | > 1000
5 | NCCCNc1nc2ccc(F)cc2c2c(=O)c3cc(F)ccc3sc12 [compound 7402, 6-(3-aminopropylamino)-2,10-difluoro-12H-thiochromeno[2,3-c]quinolin-12-one] | > 1000
6 | NCCCNc1nc2ccc(Cl)cc2c2c(=O)c3cc(F)ccc3sc12 [compound 7403, 6-((3-aminopropyl)amino)-2-chloro-10-fluoro-12H-thiochromeno[2,3-c]quinolin-12-one] | > 1000
7 | O=c1c2cc(F)ccc2sc2c(NCCCNCCO)nc3ccc(Cl)cc3c12 [compound 7406, 2-chloro-10-fluoro-6-(3-(2-hydroxyethylamino)propylamino)-12H-thiochromeno[2,3-c]quinolin-12-one] | > 1000
8 | COc1ccc2nc(NCCCNCCO)c3sc4ccc(F)cc4c(=O)c3c2c1 [compound 7407, 10-fluoro-6-(3-(2-hydroxyethylamino)propylamino)-2-methoxy-12H-thiochromeno[2,3-c]quinolin-12-one] | > 1000
9 | O=c1c2cc(F)ccc2sc2c(NCCCNCCO)nc3ccc(F)cc3c12 [compound 7408, 2,10-difluoro-6-(3-(2-hydroxyethylamino)propylamino)-12H-thiochromeno[2,3-c]quinolin-12-one] | > 1000
10 | NCCNc1nc2ccc(F)cc2c2c(=O)c3cc(F)ccc3sc12 [compound 7422, 6-(2-aminoethylamino)-2,10-difluoro-12H-thiochromeno[2,3-c]quinolin-12-one] | > 1000
11 | O=c1c2cc(F)ccc2sc2c(NCc3ccccc3)nc3ccc(F)cc3c12 [compound 7424, 6-(benzylamino)-2,10-difluoro-12H-thiochromeno[2,3-c]quinolin-12-one] | > 1000
12 | O=c1c2cc(F)ccc2sc2c(N3CCNCC3)nc3ccc(F)cc3c12 [compound 7425, 2,10-difluoro-6-(piperazin-1-yl)-12H-thiochromeno[2,3-c]quinolin-12-one] | > 1000
13 | O=c1c2cc(Cl)ccc2sc2c(NCCCNCCO)nc3ccccc3c12 [compound 7701, 10-chloro-6-(3-(2-hydroxyethylamino)propylamino)-12H-thiochromeno[2,3-c]quinolin-12-one] | > 1000
14 | CCCNc1nc2ccccc2c2c(=O)c3cc(Cl)ccc3sc12 [compound 7703, 10-chloro-6-(propylamino)-12H-thiochromeno[2,3-c]quinolin-12-one] | > 1000
15 | Nc1nc2ccccc2c2c(=O)c3cc(F)ccc3sc12 [compound 7705, 6-amino-10-fluoro-12H-thiochromeno[2,3-c]quinolin-12-one] | > 1000

Results, then the compound that gave them:

Row | IC50 [nM] | SMILES
16 | > 1000 | Nc1nc2ccccc2c2c1S(=O)(=O)c1ccc(Cl)cc1C2=O [compound 7001, 6-Amino-10-chloro-12H-thiochromeno[2,3-c]quinolin-12-one 7,7-dioxide]
17 | > 1000 | NCCCNc1nc2ccccc2c2c(=O)c3cc(C(F)(F)F)ccc3sc12 [compound 7201, 6-(3-aminopropylamino)-10-trifluoromethyl-12H-thiochromeno[2,3-c]quinolin-12-one]
18 | 51 to 200 | Cc1ccc2sc3c(NCCCN)nc4ccccc4c3c(=O)c2c1 [compound 7202, 6-(3-aminopropylamino)-10-methyl-12H-thiochromeno[2,3-c]quinolin-12-one]
19 | > 1000 | NCCCNc1nc2ccccc2c2c(=O)c3cc(OC(F)(F)F)ccc3sc12 [compound 7203, 6-(3-aminopropylamino)-10-(trifluoromethoxy)-12H-thiochromeno[2,3-c]quinolin-12-one]
20 | < 51 | NCCCNc1nc2ccccc2c2c(=O)c3cccc(F)c3sc12 [compound 7211, 6-(3-aminopropylamino)-8-fluoro-12H-thiochromeno[2,3-c]quinolin-12-one]
21 | < 51 | COc1cccc2c(=O)c3c(sc12)c(NCCCN)nc1ccccc13 [compound 7212, 6-(3-aminopropylamino)-8-methoxy-12H-thiochromeno[2,3-c]quinolin-12-one]
22 | > 1000 | NCCCNc1nc2ccccc2c2c(=O)c3cc(F)cc(Cl)c3sc12 [compound 7213, 6-(3-aminopropylamino)-8-chloro-10-fluoro-12H-thiochromeno[2,3-c]quinolin-12-one]
23 | > 1000 | O=c1c2cc(C(F)(F)F)ccc2sc2c(NCCCNCCO)nc3ccccc3c12 [compound 7214, 6-(3-(2-hydroxyethylamino)propylamino)-10-trifluoromethyl-12H-thiochromeno[2,3-c]quinolin-12-one]
24 | 201 to 500 | Cc1ccc2sc3c(NCCCNCCO)nc4ccccc4c3c(=O)c2c1 [compound 7215, 6-(3-(2-hydroxyethylamino)propylamino)-10-methyl-12H-thiochromeno[2,3-c]quinolin-12-one]
25 | 201 to 500 | O=c1c2cccc(F)c2sc2c(NCCCNCCO)nc3ccccc3c12 [compound 7224, 8-fluoro-6-(3-(2-hydroxyethylamino)propylamino)-12H-thiochromeno[2,3-c]quinolin-12-one]
26 | 201 to 500 | COc1cccc2c(=O)c3c(sc12)c(NCCCNCCO)nc1ccccc13 [compound 7225, 6-(3-(2-hydroxyethylamino)propylamino)-8-methoxy-12H-thiochromeno[2,3-c]quinolin-12-one]
27 | > 1000 | O=c1c2cc(F)cc(Cl)c2sc2c(NCCCNCCO)nc3ccccc3c12 [compound 7226, 8-chloro-10-fluoro-6-(3-(2-hydroxyethylamino)propylamino)-12H-thiochromeno[2,3-c]quinolin-12-one]
28 | < 51 | Cc1ccc2sc3c(NCCN)nc4ccccc4c3c(=O)c2c1 [compound 7231, 6-(2-aminoethylamino)-10-methyl-12H-thiochromeno[2,3-c]quinolin-12-one]
29 | > 1000 | CCNc1nc2ccccc2c2c(=O)c3cc(C)ccc3sc12 [compound 7232, 6-(ethylamino)-10-methyl-12H-thiochromeno[2,3-c]quinolin-12-one]
30 | < 51 | NCCNc1nc2ccccc2c2c(=O)c3cccc(F)c3sc12 [compound 7240, 6-(2-aminoethylamino)-8-fluoro-12H-thiochromeno[2,3-c]quinolin-12-one]
31 | < 51 | COc1cccc2c(=O)c3c(sc12)c(NCCN)nc1ccccc13 [compound 7244, 6-(2-aminoethylamino)-8-methoxy-12H-thiochromeno[2,3-c]quinolin-12-one]
32 | 51 to 200 | COc1cccc2c(=O)c3c(sc12)c(N1CCNCC1)nc1ccccc13 [compound 7247, 8-methoxy-6-(piperazin-1-yl)-12H-thiochromeno[2,3-c]quinolin-12-one]
33 | 51 to 200 | NCCNc1nc2ccccc2c2c(=O)c3cc(F)cc(Cl)c3sc12 [compound 7248, 6-(2-aminoethylamino)-8-chloro-10-fluoro-12H-thiochromeno[2,3-c]quinolin-12-one]
34 | 201 to 500 | NCCCNc1nc2ccccc2c2c(=O)c3cc(F)cc(F)c3sc12 [compound 7252, 6-(3-aminopropylamino)-8,10-difluoro-12H-thiochromeno[2,3-c]quinolin-12-one]
35 | 51 to 200 | NCCNc1nc2ccccc2c2c(=O)c3cc(F)cc(F)c3sc12 [compound 7254, 6-(2-aminoethylamino)-8,10-difluoro-12H-thiochromeno[2,3-c]quinolin-12-one]
36 | 501 to 1000 | NCCCNc1nc2ccccc2c2c(=O)c3cc(Cl)ccc3sc12 [compound 7704, 6-(3-aminopropylamino)-10-chloro-12H-thiochromeno[2,3-c]quinolin-12-one]
